Measured values from publication PMC10700596 (Nature Communications, 2023).
Several values for one entry are separate records, joined by “and”; a condition that tells them apart may be missing. Equal values may be shown once. Read-outs that look alike come from different tables or passages of the source.

Assay: in vivo
Format: in vivo, mice
Settings: mice; for CSF concentration, Final / Brain concentration, Final / Plasma concentration, Final: listed as 7827_0016, 10 mg/kg

## O=C(O)C1CCC2(CC1)CC(Nc1ncnc3[nH]c4c(F)cccc4c13)C2 (stereo not drawn) [Compound 74, OC(=O)C1CCC2(CC(C2)NC=3N=CN=C4NC=5C(F)=CC=CC5C34)CC1]
male, CD-1, mouse, brain, ip, 10 mg/kg, IP 10 mg/kg, brain, 240 min, mean, read-out: Brain concentrations of cmpd 7827_0016 in mice following IP (10 mg/kg) administration, C
  concentration at 240 min: 24.7 ng/g
male, CD-1, mouse, brain, ip, 10 mg/kg, IP 10 mg/kg, brain, 360 min, individual animals, read-out: Brain concentration, Final
  concentration at 360 min: 20.8 ng/g
male, CD-1, mouse, brain, ip, 10 mg/kg, IP 10 mg/kg, brain, 360 min, mean, read-out: Brain concentrations of cmpd 7827_0016 in mice following IP (10 mg/kg) administration, C
  concentration at 360 min: 24.3 ng/g
male, CD-1, mouse, brain, ip, 10 mg/kg, IP 10 mg/kg, brain, 480 min, mean, read-out: Brain concentrations of cmpd 7827_0016 in mice following IP (10 mg/kg) administration, C
  concentration at 480 min: 26.7 ng/g
male, CD-1, mouse, brain, ip, 10 mg/kg, IP 10 mg/kg, brain, 1440 min, individual animals, read-out: Brain concentration, Final
  concentration at 1440 min: 0 ng/g
male, CD-1, mouse, brain, ip, 10 mg/kg, IP 10 mg/kg, brain, 1440 min, mean, read-out: Brain concentrations of cmpd 7827_0016 in mice following IP (10 mg/kg) administration, C
  concentration at 1440 min: 0 ng/g
male, CD-1, mouse, plasma, ip, 10 mg/kg, IP 10 mg/kg, plasma, 5 min, individual animals, read-out: Plasma concentration, Final
  concentration at 5 min: 1340 ng/mL
male, CD-1, mouse, plasma, ip, 10 mg/kg, IP 10 mg/kg, plasma, 5 min, mean, read-out: Plasma concentrations of cmpd 7827_0016 in mice following IP (10 mg/kg) administration, C
  concentration at 5 min: 1150 ng/mL
male, CD-1, mouse, plasma, ip, 10 mg/kg, IP 10 mg/kg, plasma, 15 min, individual animals, read-out: Plasma concentration, Final
  concentration at 15 min: 3720 ng/mL
male, CD-1, mouse, plasma, ip, 10 mg/kg, IP 10 mg/kg, plasma, 15 min, mean, read-out: Plasma concentrations of cmpd 7827_0016 in mice following IP (10 mg/kg) administration, C
  concentration at 15 min: 4580 ng/mL
male, CD-1, mouse, plasma, ip, 10 mg/kg, IP 10 mg/kg, plasma, 30 min, individual animals, read-out: Plasma concentration, Final
  concentration at 30 min: 4610 ng/mL
male, CD-1, mouse, plasma, ip, 10 mg/kg, IP 10 mg/kg, plasma, 30 min, mean, read-out: Plasma concentrations of cmpd 7827_0016 in mice following IP (10 mg/kg) administration, C
  concentration at 30 min: 6390 ng/mL
male, CD-1, mouse, plasma, ip, 10 mg/kg, IP 10 mg/kg, plasma, 60 min, individual animals, read-out: Plasma concentration, Final
  concentration at 60 min: 6620 ng/mL
male, CD-1, mouse, plasma, ip, 10 mg/kg, IP 10 mg/kg, plasma, 60 min, mean, read-out: Plasma concentrations of cmpd 7827_0016 in mice following IP (10 mg/kg) administration, C
  concentration at 60 min: 6670 ng/mL
male, CD-1, mouse, plasma, ip, 10 mg/kg, IP 10 mg/kg, plasma, 120 min, mean, read-out: Plasma concentrations of cmpd 7827_0016 in mice following IP (10 mg/kg) administration, C
  concentration at 120 min: 3050 ng/mL
male, CD-1, mouse, plasma, ip, 10 mg/kg, IP 10 mg/kg, plasma, 240 min, mean, read-out: Plasma concentrations of cmpd 7827_0016 in mice following IP (10 mg/kg) administration, C
  concentration at 240 min: 1220 ng/mL
male, CD-1, mouse, plasma, ip, 10 mg/kg, IP 10 mg/kg, plasma, 360 min, individual animals, read-out: Plasma concentration, Final
  concentration at 360 min: 1220 ng/mL
male, CD-1, mouse, plasma, ip, 10 mg/kg, IP 10 mg/kg, plasma, 360 min, mean, read-out: Plasma concentrations of cmpd 7827_0016 in mice following IP (10 mg/kg) administration, C
  concentration at 360 min: 1110 ng/mL
male, CD-1, mouse, plasma, ip, 10 mg/kg, IP 10 mg/kg, plasma, 480 min, mean, read-out: Plasma concentrations of cmpd 7827_0016 in mice following IP (10 mg/kg) administration, C
  concentration at 480 min: 1230 ng/mL
male, CD-1, mouse, plasma, ip, 10 mg/kg, IP 10 mg/kg, plasma, 1440 min, mean, read-out: Plasma concentrations of cmpd 7827_0016 in mice following IP (10 mg/kg) administration, C
  concentration at 1440 min: 83.4 ng/mL
male, CD-1, mouse, plasma, ip, 10 mg/kg i.p.
  Cmax: 6670 ng/mL
male, CD-1, mouse, plasma, ip, 10 mg/kg i.p., read-out: plasma AUC (converted)
  AUC: 24200 ng·h/mL
IP 10 mg/kg, 5 min, individual animals
  CSF concentration, Final: 0 ng/mL and 47.1 ng/mL
IP 10 mg/kg, 15 min, individual animals
  CSF concentration, Final: 76.0 ng/mL and 109 ng/mL and 26.8 ng/mL
IP 10 mg/kg, 30 min, individual animals
  CSF concentration, Final: 63.1 ng/mL and 31.1 ng/mL and 148 ng/mL
IP 10 mg/kg, 60 min, individual animals
  CSF concentration, Final: 333 ng/mL and 43.7 ng/mL and 98.0 ng/mL
IP 10 mg/kg, 120 min, individual animals
  CSF concentration, Final: 23.6 ng/mL and 138.9 ng/mL and 195.0 ng/mL
IP 10 mg/kg, 240 min, individual animals
  CSF concentration, Final: 8.55 ng/mL and 16.8 ng/mL and 52.8 ng/mL
IP 10 mg/kg, 360 min, individual animals
  CSF concentration, Final: 72.8 ng/mL and 71.4 ng/mL
IP 10 mg/kg, 480 min, individual animals
  CSF concentration, Final: 16.7 ng/mL and 5.28 ng/mL and 0 ng/mL
IP 10 mg/kg, 1440 min, individual animals
  CSF concentration, Final: 32.4 ng/mL and 0 ng/mL
IP 10 mg/kg, brain, 5 min, individual animals
  Brain concentration, Final: 63.0 ng/g and 61.5 ng/g
IP 10 mg/kg, brain, 15 min, individual animals
  Brain concentration, Final: 140 ng/g and 112 ng/g
IP 10 mg/kg, brain, 30 min, individual animals
  Brain concentration, Final: 168 ng/g and 291 ng/g
IP 10 mg/kg, brain, 60 min, individual animals
  Brain concentration, Final: 124 ng/g and 174 ng/g
IP 10 mg/kg, brain, 120 min, individual animals
  Brain concentration, Final: 40.2 ng/g and 117 ng/g and 89.0 ng/g
IP 10 mg/kg, brain, 240 min, individual animals
  Brain concentration, Final: 26.0 ng/g and 26.4 ng/g
IP 10 mg/kg, brain, 360 min, individual animals
  Brain concentration, Final: 33.7 ng/g and 18.5 ng/g
IP 10 mg/kg, brain, 480 min, individual animals
  Brain concentration, Final: 9.82 ng/g and 13.1 ng/g and 57.1 ng/g
IP 10 mg/kg, plasma, 5 min, individual animals
  Plasma concentration, Final: 937 ng/mL and 1166 ng/mL
IP 10 mg/kg, plasma, 15 min, individual animals
  Plasma concentration, Final: 5726 ng/mL and 4307 ng/mL
IP 10 mg/kg, plasma, 30 min, individual animals
  Plasma concentration, Final: 6345 ng/mL and 8215 ng/mL
IP 10 mg/kg, plasma, 60 min, individual animals
  Plasma concentration, Final: 5152 ng/mL and 8232 ng/mL
IP 10 mg/kg, plasma, 120 min, individual animals
  Plasma concentration, Final: 1532 ng/mL and 4227 ng/mL and 3400 ng/mL
IP 10 mg/kg, plasma, 240 min, individual animals
  Plasma concentration, Final: 751 ng/mL and 1518 ng/mL and 1407 ng/mL
IP 10 mg/kg, plasma, 360 min, individual animals
  Plasma concentration, Final: 1143 ng/mL and 957 ng/mL
IP 10 mg/kg, plasma, 480 min, individual animals
  Plasma concentration, Final: 516 ng/mL and 763 ng/mL and 2398 ng/mL
IP 10 mg/kg, plasma, 1440 min, individual animals
  Plasma concentration, Final: 250 ng/mL and 0 ng/mL
